Measured values: PubChem BioAssay (NCI)
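Five compound concentrations were applied to cells in 96-well plates for 48 hours; endpoints were derived by simple linear interpolation of the resulting dose-response curve. GI50: concentration for 50% inhibition of growth. The concentration for full growth arrest is given as TGI.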

Experiments:
Assay in all cases: DTP human tumour cell line panel, 48 h
786-0 renal = tested on: 786-0 renal
A498 renal = tested on: A498 renal
A549 NSCLC = tested on: A549 NSCLC
ACHN renal = tested on: ACHN renal
BT-549 breast = tested on: BT-549 breast
CAKI-1 renal = tested on: CAKI-1 renal
CCRF-CEM leukemia = tested on: CCRF-CEM leukemia
COLO 205 colon = tested on: COLO 205 colon
DU-145 prostate = tested on: DU-145 prostate
HCC-2998 colon = tested on: HCC-2998 colon
HCT-116 colon = tested on: HCT-116 colon
HCT-15 colon = tested on: HCT-15 colon
HL-60(TB) leukemia = tested on: HL-60(TB) leukemia
HOP-62 NSCLC = tested on: HOP-62 NSCLC
HOP-92 NSCLC = tested on: HOP-92 NSCLC
HS 578T breast = tested on: HS 578T breast
HT29 colon = tested on: HT29 colon
IGROV1 ovarian = tested on: IGROV1 ovarian
K-562 leukemia = tested on: K-562 leukemia
KM12 colon = tested on: KM12 colon
LOX IMVI melanoma = tested on: LOX IMVI melanoma
M14 melanoma = tested on: M14 melanoma
MALME-3M melanoma = tested on: MALME-3M melanoma
MCF7 breast = tested on: MCF7 breast
MDA-MB-231 breast = tested on: MDA-MB-231 breast
MOLT-4 leukemia = tested on: MOLT-4 leukemia
NCI-H226 lung = tested on: NCI-H226 lung
NCI-H460 lung = tested on: NCI-H460 lung
NCI-H522 lung = tested on: NCI-H522 lung
NCI/ADR-RES ovarian = tested on: NCI/ADR-RES ovarian
OVCAR-4 ovarian = tested on: OVCAR-4 ovarian
OVCAR-5 ovarian = tested on: OVCAR-5 ovarian
OVCAR-8 ovarian = tested on: OVCAR-8 ovarian
PC-3 prostate = tested on: PC-3 prostate
RPMI-8226 leukemia = tested on: RPMI-8226 leukemia
RXF 393 renal = tested on: RXF 393 renal
SF-268 CNS = tested on: SF-268 CNS
SF-295 CNS = tested on: SF-295 CNS
SF-539 CNS = tested on: SF-539 CNS
SK-MEL-5 melanoma = tested on: SK-MEL-5 melanoma
SK-OV-3 ovarian = tested on: SK-OV-3 ovarian
SN12C renal = tested on: SN12C renal
SNB-19 CNS = tested on: SNB-19 CNS
SNB-75 CNS = tested on: SNB-75 CNS
SR leukemia = tested on: SR leukemia
SW-620 colon = tested on: SW-620 colon
T-47D breast = tested on: T-47D breast
TK-10 renal = tested on: TK-10 renal
U251 CNS = tested on: U251 CNS
UACC-257 melanoma = tested on: UACC-257 melanoma
UACC-62 melanoma = tested on: UACC-62 melanoma
UO-31 renal = tested on: UO-31 renal

CC(=O)Nc1cccc(-n2cnc3cc(-c4ccc(O)cc4)ccc32)c1
GI50 (786-0 renal): 780 nM | TGI (786-0 renal): 23.2 µM | GI50 (A498 renal): 249 nM | TGI (A498 renal): 982 nM | GI50 (A549 NSCLC): 730 nM | TGI (A549 NSCLC): 80.9 µM | GI50 (ACHN renal): 894 nM | TGI (ACHN renal): 16.8 µM | GI50 (BT-549 breast): 342 nM | TGI (BT-549 breast): 11.2 µM | GI50 (CAKI-1 renal): 668 nM | TGI (CAKI-1 renal): 14 µM | GI50 (CCRF-CEM leukemia): 515 nM | TGI (CCRF-CEM leukemia): 68.2 µM | GI50 (COLO 205 colon): 3.86 µM | TGI (COLO 205 colon): 40.1 µM | GI50 (DU-145 prostate): 1760 nM | TGI (DU-145 prostate): 23.6 µM | GI50 (HCC-2998 colon): 3.46 µM | TGI (HCC-2998 colon): 49 µM | GI50 (HCT-116 colon): 413 nM | TGI (HCT-116 colon): 27.2 µM | GI50 (HCT-15 colon): 333 nM | TGI (HCT-15 colon): 18.9 µM | GI50 (HL-60(TB) leukemia): 313 nM | TGI (HL-60(TB) leukemia): 10.6 µM | GI50 (HOP-62 NSCLC): 820 nM | TGI (HOP-62 NSCLC): 22.5 µM | GI50 (HOP-92 NSCLC): 940 nM | TGI (HOP-92 NSCLC): 28.8 µM | GI50 (HS 578T breast): 254 nM | TGI (HS 578T breast): 2460 nM | GI50 (HT29 colon): 3.24 µM | TGI (HT29 colon): 19 µM | GI50 (IGROV1 ovarian): 696 nM | TGI (IGROV1 ovarian): 29.1 µM | GI50 (K-562 leukemia): 169 nM | TGI (K-562 leukemia): > 100 µM | GI50 (KM12 colon): 5.42 µM | TGI (KM12 colon): 68.2 µM | GI50 (LOX IMVI melanoma): 523 nM | TGI (LOX IMVI melanoma): 16.3 µM | GI50 (M14 melanoma): 289 nM | TGI (M14 melanoma): 77 µM | GI50 (MALME-3M melanoma): 583 nM | TGI (MALME-3M melanoma): 49.8 µM | GI50 (MCF7 breast): 377 nM | TGI (MCF7 breast): 22.6 µM | GI50 (MDA-MB-231 breast): 460 nM | TGI (MDA-MB-231 breast): > 100 µM | GI50 (MOLT-4 leukemia): 428 nM | TGI (MOLT-4 leukemia): 16.2 µM | GI50 (NCI-H226 lung): 779 nM | TGI (NCI-H226 lung): 4.26 µM | GI50 (NCI-H460 lung): 386 nM | TGI (NCI-H460 lung): 14.6 µM | GI50 (NCI-H522 lung): 176 nM | TGI (NCI-H522 lung): 503 nM | GI50 (NCI/ADR-RES ovarian): 428 nM | TGI (NCI/ADR-RES ovarian): 11.5 µM | GI50 (OVCAR-4 ovarian): 2420 nM | TGI (OVCAR-4 ovarian): 43.1 µM | GI50 (OVCAR-5 ovarian): 10.6 µM | TGI (OVCAR-5 ovarian): > 100 µM | GI50 (OVCAR-8 ovarian): 618 nM | TGI (OVCAR-8 ovarian): 17 µM | GI50 (PC-3 prostate): 1430 nM | TGI (PC-3 prostate): 42.1 µM | GI50 (RPMI-8226 leukemia): 494 nM | TGI (RPMI-8226 leukemia): 9.23 µM | GI50 (RXF 393 renal): 834 nM | TGI (RXF 393 renal): 8.27 µM | GI50 (SF-268 CNS): 982 nM | TGI (SF-268 CNS): 57.8 µM | GI50 (SF-295 CNS): 601 nM | TGI (SF-295 CNS): 11 µM | GI50 (SF-539 CNS): 371 nM | TGI (SF-539 CNS): 5.95 µM | GI50 (SK-MEL-5 melanoma): 316 nM | TGI (SK-MEL-5 melanoma): 15.8 µM | GI50 (SK-OV-3 ovarian): 1160 nM | TGI (SK-OV-3 ovarian): 22.1 µM | GI50 (SN12C renal): 546 nM | TGI (SN12C renal): 41.4 µM | GI50 (SNB-19 CNS): 872 nM | TGI (SNB-19 CNS): > 100 µM | GI50 (SNB-75 CNS): 232 nM | TGI (SNB-75 CNS): 929 nM | GI50 (SR leukemia): 182 nM | TGI (SR leukemia): > 100 µM | GI50 (SW-620 colon): 368 nM | TGI (SW-620 colon): 36.5 µM | GI50 (T-47D breast): 534 nM | TGI (T-47D breast): 19.6 µM | GI50 (TK-10 renal): 5.95 µM | TGI (TK-10 renal): 47.4 µM | GI50 (U251 CNS): 365 nM | TGI (U251 CNS): 30.2 µM | GI50 (UACC-257 melanoma): 716 nM | TGI (UACC-257 melanoma): 45.5 µM | GI50 (UACC-62 melanoma): 350 nM | TGI (UACC-62 melanoma): 17.6 µM | GI50 (UO-31 renal): 716 nM | TGI (UO-31 renal): 15 µM
